Measured values reported in PubChem BioAssay AID1259408 (Genetic Toxicology Data Bank (GENE-TOX), 2018).
Active and inactive are the calls of the source. No rule for the calls is given here.

System: GENE-TOX genotoxicity assays, various organisms and cells
Experiment: GENE-TOX mutagenicity studies
Conditions: for call: Species/Cell Type: Nonhuman, Assay Type: In vivo carcinogenicity studies
[1] = Species/Cell Type: Salmonella typhimurium (one or more of the five standard strains: TA98, TA100, TA1535, TA1537, and TA1538), Assay Type: Histidine reverse gene mutation, Ames assay, Assay Code: SAL+, Evaluation Type: Evaluation A (Pre-1980)

Cn1cncc1[N+](=O)[O-]
mutagenic call [1]: active; positive

O=c1c2ccccc2sc2c(CO)ccc(NCCN3CCCCC3)c12
mutagenic call (Species/Cell Type: Mouse lymphoma (L5178Y) cells, Assay Type: Forward gene mutation at the thymidine kinase (TK) locus, chromosome aberrations, Assay Code: L51+, Evaluation Type: Evaluation A (Pre-1980)): active; positive

CC(=O)[O-].[Tl+]
mutagenic call (Species/Cell Type: Syrian hamster embryo (SA7/SHE) cells, Assay Type: Cell transformation, viral enhanced, Assay Code: CT7+, Evaluation Type: Evaluation A (Pre-1980)): active; positive

O=Nc1ccc2c(c1)Cc1ccccc1-2
mutagenic call (Species/Cell Type: Escherichia coli polA (W3119 vs P3478), Assay Type: Rec-assay, DNA effects (bacterial DNA repair), Assay Code: RE1+, Evaluation Type: Evaluation A (Pre-1980)): active; positive
mutagenic call [1]: active; positive

Nc1cccc2c1-c1ccccc1C2
mutagenic call (Species/Cell Type: Fischer rat embryo (RLV/1706) cells, Assay Type: Cell transformation, viral enhanced, Assay Code: CTR-, Evaluation Type: Evaluation A (Pre-1980)): inactive; negative
mutagenic call (Species/Cell Type: Mouse embryo (AKR/ME) cells, Assay Type: Cell transformation, Assay Code: CTK-, Evaluation Type: Evaluation A (Pre-1980)): inactive; negative

ClC1=C(Cl)C2(Cl)C3C(Cl)C(Cl)CC3C1(Cl)C2(Cl)Cl (stereo not drawn)
mutagenic call (Species/Cell Type: Chinese hamster lung (V79) cells, Assay Type: Forward gene mutation at the HPRT or ouabain locus, Assay Code: V79+, Evaluation Type: Evaluation A (Pre-1980)): active; positive
call (Assay Code: CCG+L, Evaluation Type: Evaluation A (Pre-1980)): active; positive
mutagenic call (Species/Cell Type: Rodents, Sex: Male, Assay Type: Dominant lethal test, Assay Code: DLTT, Evaluation Type: Evaluation A (Pre-1980)): no conclusion
mutagenic call (Species/Cell Type: Zea mays (corn), Assay Type: Gene mutation, Assay Code: ZEM+, Evaluation Type: Evaluation A (Pre-1980)): active; positive

Cl[Se][Se]Cl
mutagenic call (Species/Cell Type: Syrian hamster embryo (SA7/SHE) cells, Assay Type: Cell transformation, viral enhanced, Assay Code: CT7T, Evaluation Type: Evaluation A (Pre-1980)): no conclusion

CN(C)C(=O)N1CC1
mutagenic call (Species/Cell Type: Schizosaccharomyces pombe, Assay Type: Reverse gene mutation, Assay Code: YEZ+, Evaluation Type: Evaluation A (Pre-1980)): active; positive

C1=C[C@H]2O[C@H]2c2c1cc1ccc3cccc4ccc2c1c34
mutagenic call (Species/Cell Type: Chinese hamster lung (V79) cells, Assay Type: Forward gene mutation at the HPRT or ouabain locus, Assay Code: V79-, Evaluation Type: Evaluation A (Pre-1980)): inactive; negative
call (Assay Code: CCGT, Evaluation Type: Evaluation A (Pre-1980)): no conclusion
mutagenic call [1]: active; positive

c1ccc(NNc2ccccc2)cc1
call (Assay Code: CCG+, Evaluation Type: Evaluation A (Pre-1980)): active; positive

NCCC[C@H](N)C(=O)O
mutagenic call (Species/Cell Type: Human, Sex: Male, Assay Type: Sperm morphology, Assay Code: SPH-, Evaluation Type: Evaluation A (Pre-1980)): inactive; negative

CC(C)CCC[C@@H](C)[C@H]1CC[C@H]2[C@@H]3C[C@@H]4O[C@@]45C[C@@H](O)CC[C@]5(C)[C@H]3CC[C@]12C
mutagenic call (Species/Cell Type: Syrian hamster embryo (SHE) cells, Assay Type: Cell transformation, clonal assay, Assay Code: CTC+, Evaluation Type: Evaluation A (Pre-1980)): active; positive

O=NN(CCCl)C(=O)NCCCCO
mutagenic call (Species/Cell Type: Saccharomyces cerevisiae, Assay Type: Mitotic recombination or gene conversion, Assay Code: YEC+, Evaluation Type: Evaluation A (Pre-1980)): active; positive

C=CCc1ccc(O)c(OC)c1
mutagenic call (Species/Cell Type: Human lymphocytes, Assay Type: Sister-chromatid exchange (SCE) in vitro, Assay Code: SCLT, Evaluation Type: Evaluation B (Post-1980)): no conclusion
mutagenic call (Species/Cell Type: Mammalian polychromatic erythrocytes, Assay Type: Micronucleus test, chromosome aberrations, Assay Code: MNT+, Evaluation Type: Evaluation B (Post-1980)): active; positive
mutagenic call (Species/Cell Type: Salmonella typhimurium, Assay Type: Forward and reverse gene mutation, host-mediated assay, Assay Code: HMAT, Evaluation Type: Evaluation A (Pre-1980)): no conclusion
